{"source": "patent US9522935B2", "about": "“Commands and method of treating cancer via RHO pathway” (priority 2013, dated 2016)", "key": {"HepG2": {"tested_on": "HepG2", "assay": "In vitro effects on growth of liver cancer cells (Table 4)", "format": "cell-based, human"}, "[1]": {"tested_on": "allograft pancreatic cancer cell lines", "assay": "Allograft pancreatic cancer cell lines in mouse model, tumor size", "format": "in vivo", "settings": "0.01 mg/kg intraperitoneal injection, three times a week", "experimental": "(§1) LD030's effect on the growth of allograft pancreatic cancer cell lines was further studied as follows: Each mouse model was given 0.01 mg/kg LD030 via intraperitoneal injection, three times a week. […] Extracted from the treated mouse and the control mouse, the phosphorylation-signal transduction and activator of transcription (p-STAT3), phospho-JAK2 (p-JAK2), Bcl-XL, apoptosis protease 3, 9 and GADPH (glyceraldehyde-3-phosphate dehydrogenase, or […]) were subject to protein electrophoresis. […] GADPH was used as an internal reference, the expression of which was basically unchanged."}, "[2]": {"tested_on": "Jak/STAT phosphorylation in PancI cells", "assay": "Western Blotting of signal pathway proteins in PancI cells", "format": "cell-based, human"}, "HepG2 cells [3]": {"tested_on": "HepG2 cells", "assay": "Nude mouse model of hepatocellular carcinoma (HepG2), growth rate", "format": "in vivo, nude mice", "experimental": "In contrast, LD30 (1 mg/kg/time, twice a day) reduced the growth rate of HepG2 cells by about 63%, with statistical significance (p<0.05) when compared with the ethanol control.\nLD030 was also compared with Nexavar for their effects on the growth rate of HepG2 cells.\nA further study was conducted on liver cancer cell line in nude mice (HepG2), where Nexavar's dosage was 30 mg/kg, twice a day and LD030's dosage was 1 mg/kg, twice a day along with a blank control and a combination of LD030 and Nexavar. The result is shown in FIG. 21 where Nr stands for Nexavar. […] When compared with the blank, LD030's effect is statistically significant (p<0.05)."}, "HepG2 cells [4]": {"tested_on": "HepG2 cells", "assay": "Flow cytometry (PI staining) for apoptosis of HepG2 cells", "format": "cell-based, human", "settings": "HepG2, 24 hours, 0.03-17.5 μM", "experimental": "The study was conduct by using flow cytometry to detect apoptosis of HepG2 cells after being treated for 24 hours with LD030 at concentrations 0.03 μM, 0.14 μM, 0.7 μM, 3.5 μM, and 17.5 μM along with blank control. Then proceeded as follows:\n1. Collect cells (1-5×10^6/mL), centrifuge at 500-1000 r/min for 5 min, and discard the culture medium.\n2. Wash the cells with 3 ml PBS once.\n3. Centrifuge to discard PBS, and add 70% ice-cold ethanol for fixation, 4° C., 1-2 hours.\n4. Centrifuge to discard ethanol, and re-suspend in 3 ml PBS for 5 min.\n5. Filter with a 400 mesh screen, and centrifuge 500-1000 r/min for 5 min to discard PBS.\n6. Stain with 1 ml propidium iodide (Propidium Iodide, PI) at 4° C. in the dark for 30 min.\n7. Conduct flow cytometry."}, "[5]": {"tested_on": "PancI (pancreatic cancer cell line)", "assay": "MTT assay, LD030 on PancI", "format": "cell-based", "settings": "Homo sapiens, 48 hours, read-out: inhibition rate on cell growth", "experimental": "(§2) MTT assay, a well known method known in the art, was used to analyze anticancer effects of compound LD030 on human cancer cell lines, such as, HepG2 (liver cancer cell line), PancI (pancreatic cancer cell line), NCI-H460 (lung cancer cell line), MCF-7 (breast adenocarcinoma cell line) and SF-268 (brain tumor cell lines). An LD030 solution was diluted gradually to obtain a serial of LD030 solutions with decreasing concentrations, which was used to treat various cancer cell lines mentioned above incubated in separate container. […] For incubating with HepG2 cell line, LD030's concentrations were 0.001 μM, 0.01 μM, 0.1 μM, 1 μM, 10 μM, 100 μM. For PancI cell line, the concentrations were 0.1 μM, 1 μM, 10 μM, 100 μM. For NCI-H460 cell line, the concentrations were 0.001 μM, 0.01 μM, 0.1 μM, 1 μM, 10 μM, 100 μM. For MCF-7 cell line, the concentrations were 0.001 μM, 0.01 μM, 0.1 μM, 1 μM, 10 μM, 100 μM. For SF-268 cell line, the concentrations were 0.001 μM, 0.01 μM, 0.1 μM, 1 μM, 10 μM, 100 μM."}, "[6]": {"assay": "Toxicity study of LD030 on BALB/c mice", "format": "in vivo", "experimental": "LD030 animal toxicity experiments were conducted in adult BALB/c mice. The mice were subject to a […] dosage of 1-16 mg/Kg via peritoneal injection. […] The results confirmed that at a dosage as high as 16 mg/Kg LD030 is safe to BALB/c. By short-term toxicological experiment, the half-lethal dose LD50 (under continuous treatment) is 4 mg/kg, and the median effective dose ED50 of 0.2 mg/kg, resulting in a therapeutic Index of 20 (that is, LD50/ED50≈20)."}, "[7]": {"tested_on": "HepG2 (liver cancer cell line)", "assay": "MTT assay, LD030 on HepG2", "format": "cell-based", "settings": "Homo sapiens, 48 hours, read-out: inhibition rate on cell growth", "experimental": "as §2"}, "[8]": {"tested_on": "p-STAT3, p-JAK2, Bcl-XL, apoptosis protease 3, 9", "assay": "Protein electrophoresis of extracts from treated allograft mouse", "format": "in vivo", "settings": "0.01 mg/kg intraperitoneal injection, three times a week; versus control mouse", "experimental": "as §1"}, "[9]": {"tested_on": "MCF-7 (breast adenocarcinoma cell line)", "assay": "MTT assay, LD030 on MCF-7", "format": "cell-based", "settings": "Homo sapiens, MCF7; MCF-7, 100 μM, 48 hours; read-out: inhibition rate on cell growth", "experimental": "as §2"}, "[10]": {"tested_on": "SF-268 (brain tumor cell lines)", "assay": "MTT assay, LD030 on SF-268", "format": "cell-based", "settings": "Homo sapiens; SF-268, 100 μM, 48 hours; read-out: inhibition rate on cell growth", "experimental": "as §2"}, "[11]": {"tested_on": "NCI-H460 (lung cancer cell line)", "assay": "MTT assay, LD030 on NCI-H460", "format": "cell-based", "settings": "Homo sapiens; NCI-H460, 100 μM, 48 hours; read-out: inhibition rate on cell growth", "experimental": "as §2"}, "[12]": {"settings": "50 μM, at 24 hours and 48 hours, versus blank control"}}}
{"smiles": "CC(=O)OC(C)(C)C(=O)CCC(C)C1CC[C@@]2(C)C34CC[C@H]5C(C)(C)[C@@H](O)CC[C@]5(C)C3(CC[C@]12C)O4", "note": "(stereo partly drawn) [LD030]", "values": [{"measurement": "IC50", "setting": "HepG2; Homo sapiens, HepG2, in vitro growth of HepG2 liver cancer cells", "result": 1330, "unit": "nM"}, {"measurement": "IC50", "setting": "HepG2; in vitro growth of HepG2 liver cancer cells", "result": 1570, "unit": "nM"}, {"measurement": "tumor size versus untreated control mouse", "setting": "[1]", "result": "significantly reduced"}, {"measurement": "p-p38 protein expression", "setting": "[2]; 20 μM, versus blank control", "result": "increased"}, {"measurement": "p-jak2", "setting": "[2]; [12]", "result": "significantly reduced"}, {"measurement": "p-stat3 (tyr705)", "setting": "[2]; [12]", "result": "significantly reduced"}, {"measurement": "expression of Cyclin B1", "setting": "[2]; 50 μM, at 48 hours", "result": "decreased"}, {"measurement": "effect on the tumor cells", "setting": "HepG2 cells [3]; HepG2 in nude mice, LD030 1 mg/kg twice a day alone, FIG. 21", "result": "inhibitory effect"}, {"measurement": "reduction of growth rate of HepG2 cells", "setting": "HepG2 cells [3]; nude mouse model, 1 mg/kg, twice a day, versus blank carrier control", "result": "about 63%"}, {"measurement": "cell lysis by flow cytometry", "setting": "HepG2 cells [4]", "result": "greater proportions of cell lysis with increased LD030 concentrations"}, {"measurement": "inhibition at 100 µM", "setting": "[5]", "result": "> 80", "unit": "%"}, {"measurement": "therapeutic Index (LD50/ED50)", "setting": "[6]; BALB/c, mouse, in vivo", "result": 20}, {"measurement": "LD50", "setting": "[6]; BALB/c, mouse, in vivo, short-term toxicological experiment, under continuous treatment, read-out: half-lethal dose LD50", "result": 4, "unit": "mg/kg"}, {"measurement": "ED50", "setting": "[6]; Mus musculus, read-out: median effective dose ED50", "result": 0.2, "unit": "mg/kg"}, {"measurement": "toxicity observed", "setting": "[6]; adult BALB/c mice, 1-16 mg/Kg via peritoneal injection", "result": "No significant toxicity"}, {"measurement": "survival", "setting": "[6]; adult BALB/c mice, 1-16 mg/Kg via peritoneal injection, after 14 days", "result": "still alive"}, {"measurement": "inhibition at 100 µM", "setting": "[7]", "result": "> 80", "unit": "%"}, {"measurement": "expression of Bcl-XL", "setting": "[8]", "result": "significantly reduced"}, {"measurement": "expression of apoptosis protease 3, 9", "setting": "[8]", "result": "significantly increased"}, {"measurement": "expression of p-JAK2", "setting": "[8]", "result": "significantly reduced"}, {"measurement": "expression of p-STAT3", "setting": "[8]", "result": "significantly reduced"}, {"measurement": "inhibition at 100 µM", "setting": "[9]", "result": "> 80", "unit": "%"}, {"measurement": "inhibition at 100 µM", "setting": "[10]", "result": "> 80", "unit": "%"}, {"measurement": "inhibition at 100 µM", "setting": "[11]", "result": "> 80", "unit": "%"}]}
